Measurements taken from article PMC4938410 (PLoS ONE, 2016).

Columns and labels:
BAS0541T = target: T1, BAS0541T (Bacillus anthracis, UniProt A0A384L3H6); conditions: labelled compound ([gamma-32P]ATP mixed with 2.5 uM ATP), 4 mM MgCl2, pH 8, 37 °C
T1 construct: gene GBAA_0572

BAS0540 = target: T2, BAS0540 (Bacillus anthracis, UniProt A0A6L7HQL1); conditions: 60 mM donor, 20 mM MgCl2, pH 7.5, 37 °C; covalent phosphorylation, probable acceptor Asp50
T2 construct: gene GBAA_0571
T2 sequence (A0A6L7HQL1 1-223 limits assumed): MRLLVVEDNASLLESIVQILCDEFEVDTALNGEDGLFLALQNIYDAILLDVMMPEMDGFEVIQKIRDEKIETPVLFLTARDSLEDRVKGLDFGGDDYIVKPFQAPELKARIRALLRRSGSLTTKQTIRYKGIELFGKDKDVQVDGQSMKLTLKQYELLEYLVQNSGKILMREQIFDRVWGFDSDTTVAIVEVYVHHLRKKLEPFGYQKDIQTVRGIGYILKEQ

T1 sequence (A0A384L3H6 190-416 limits assumed): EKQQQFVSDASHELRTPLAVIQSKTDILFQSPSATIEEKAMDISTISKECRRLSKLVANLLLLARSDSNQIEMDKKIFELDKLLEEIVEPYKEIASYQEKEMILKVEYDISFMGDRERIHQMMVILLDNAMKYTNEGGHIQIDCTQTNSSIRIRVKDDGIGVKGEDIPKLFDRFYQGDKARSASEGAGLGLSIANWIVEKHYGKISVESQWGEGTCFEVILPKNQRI

| SMILES | autophosphorylation, SDS-PAGE autoradiography (BAS0541T) | phosphorylation by small-molecule donor, native PAGE, Coomassie (BAS0540) |
| --- | --- | --- |
| Nc1ncnc2c1ncn2[C@@H]1O[C@H](COP(=O)(O)OP(=O)(O)OP(=O)(O)O)[C@@H](O)[C@H]1O [ATP] | Autophosphorylation was assayed by incubating the purified BAS0541T with radiolabelled ATP mixture | – |
| CC(=O)OP(=O)(O)O [acetyl phosphate] | – | physiologically relevant small molecule phosphodonors, AcP and CP |
| NC(=O)OP(=O)(O)O [carbamoyl phosphate] | – | physiologically relevant small molecule phosphodonors, AcP and CP |
